This is an account of results in patent publication US20240316047A1, “INHIBITORS OF RNA HELICASE DHX9 AND USES THEREOF” (ACCENT THERAPEUTICS, INC., priority 2022, published 2024).

The target of this assay is Human recombinant DHX9 protein (Homo sapiens (Human), UniProt Q08211). The assay is described as follows: DHX9 ATPase assay (ADP-Glo). Type of assay: biochemical. The conditions noted are these: for IC50: read-out: DHX9 Biochemical Inflection Point. A general note: ADP-Glo first removes unused ATP, then detects ADP through luciferase.
Sequence of Human recombinant DHX9 protein (Q08211 whole entry): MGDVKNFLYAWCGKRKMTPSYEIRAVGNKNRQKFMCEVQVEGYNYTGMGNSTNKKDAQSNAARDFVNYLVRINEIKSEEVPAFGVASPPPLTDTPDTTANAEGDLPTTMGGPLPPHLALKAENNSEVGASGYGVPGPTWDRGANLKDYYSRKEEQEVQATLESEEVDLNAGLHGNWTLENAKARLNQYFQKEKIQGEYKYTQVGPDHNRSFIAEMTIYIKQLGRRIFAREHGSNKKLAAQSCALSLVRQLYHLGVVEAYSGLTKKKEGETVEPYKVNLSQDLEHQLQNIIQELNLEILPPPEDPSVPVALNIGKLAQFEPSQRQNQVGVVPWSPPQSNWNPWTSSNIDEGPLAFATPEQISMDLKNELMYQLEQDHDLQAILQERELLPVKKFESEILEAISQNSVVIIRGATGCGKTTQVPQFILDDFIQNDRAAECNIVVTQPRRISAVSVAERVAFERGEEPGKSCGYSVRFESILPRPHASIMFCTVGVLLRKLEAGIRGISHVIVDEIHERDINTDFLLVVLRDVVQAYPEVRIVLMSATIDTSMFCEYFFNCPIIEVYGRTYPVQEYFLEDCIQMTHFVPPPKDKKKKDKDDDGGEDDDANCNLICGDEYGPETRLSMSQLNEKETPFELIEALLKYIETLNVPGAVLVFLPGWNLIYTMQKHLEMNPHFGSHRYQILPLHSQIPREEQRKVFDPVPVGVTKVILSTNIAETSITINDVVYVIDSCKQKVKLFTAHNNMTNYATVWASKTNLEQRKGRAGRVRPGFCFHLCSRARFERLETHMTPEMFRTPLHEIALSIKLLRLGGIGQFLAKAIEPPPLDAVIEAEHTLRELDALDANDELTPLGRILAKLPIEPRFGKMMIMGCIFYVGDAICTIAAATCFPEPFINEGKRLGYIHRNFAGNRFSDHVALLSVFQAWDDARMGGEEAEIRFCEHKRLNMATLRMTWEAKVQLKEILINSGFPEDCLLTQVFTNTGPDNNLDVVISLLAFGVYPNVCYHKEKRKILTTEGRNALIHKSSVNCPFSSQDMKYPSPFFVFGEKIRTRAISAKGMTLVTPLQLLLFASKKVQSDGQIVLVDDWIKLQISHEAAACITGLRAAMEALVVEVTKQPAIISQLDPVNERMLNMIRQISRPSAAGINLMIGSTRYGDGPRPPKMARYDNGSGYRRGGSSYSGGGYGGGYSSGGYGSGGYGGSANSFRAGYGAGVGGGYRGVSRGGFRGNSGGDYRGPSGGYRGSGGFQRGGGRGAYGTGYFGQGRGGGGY

Turning to `Cc1sc(C(=O)Nc2cc(Cl)cc(NS(C)(=O)=O)c2)cc1N1C(=O)N(C)C(C)(c2ccccn2)C1=O` (centres unmarked) [Example 660], the “DHX9 Biochemical Max Inhibition” value came to 67.1 and the IC50 stood at 2120 nM.
In the case of `CN1CCN(c2csc(C(=O)Nc3cc(Cl)cc(NS(C)(=O)=O)c3)c2)CC1=O` [Example 661], the “DHX9 Biochemical Max Inhibition” value is on record as 78.6 and the IC50 stood at 3.2 nM.
Take `Cc1cc(C(=O)Nc2cc(Cl)cc(NS(C)(=O)=O)c2)cn1-c1ncc(OC(C)(C)C)cc1F` [Example 662]: the “DHX9 Biochemical Max Inhibition” value was found to be 66.1 and the IC50 amounted to 68 nM.
On to `Cc1cc(C(=O)Nc2cc(Cl)cc(NS(C)(=O)=O)c2)cn1-c1ccc(OC(C)(C)C)cn1` [Example 663], for which the “DHX9 Biochemical Max Inhibition” value was 66.3 and the IC50 was 33 nM.
The like results for `Cc1cc(C(=O)Nc2cc(Cl)cc(NS(C)(=O)=O)c2)cn1-c1ncc(OC(C)(C)C)cn1` [Example 664] were, in that order, 68.8 and 87.7 nM.
In the case of `CN1CCN(C(=O)c2cc(C(=O)Nc3cc(Cl)cc(NS(C)(=O)=O)c3)cn2-c2ccccn2)CC1` [Example 665], the “DHX9 Biochemical Max Inhibition” value is on record as 70.1 and the IC50 stood at 30.9 nM.
With `Cc1cc(C(=O)Nc2cc(Cl)cc(NS(C)(=O)=O)c2)cn1-c1ncc(F)cc1-c1cncc(F)c1` [Example 666], the “DHX9 Biochemical Max Inhibition” value stood at 78.4 and the IC50 worked out at 121 nM.
The like results for `CC(C)n1cc(C(=O)Nc2cc(Cl)cc(NS(C)(=O)=O)c2)cc1-c1ncc(F)cn1` [Example 667] were, in that order, 67.1 and 145 nM.
As for `Cc1cc(C(=O)Nc2cc(Cl)cc(NS(C)(=O)=O)c2)cn1-c1ccc(OC2COC2)cn1` [Example 668], the “DHX9 Biochemical Max Inhibition” value turned out to be 82.3 and the IC50 was 7.3 nM.
As to `Cc1cc(C(=O)Nc2cc(Cl)cc(NS(C)(=O)=O)c2)cn1-c1ncc(OC2COC2)cn1` [Example 669], the “DHX9 Biochemical Max Inhibition” value was found to be 80.8 and the IC50 came to 1.9 nM.
The like results for `Cc1sc(C(=O)Nc2cc(Cl)cc(NS(C)(=O)=O)c2)cc1-c1ncc(OC(C)(C)C(=O)O)cn1` [Example 670] were, in that order, 73.4 and 6.2 nM.
Regarding `Cc1sc(C(=O)Nc2cc(Cl)cc(NS(C)(=O)=O)c2)cc1-c1ncc(OC(C)C(=O)O)cn1` (centres unmarked) [Example 671], the “DHX9 Biochemical Max Inhibition” value is on record as 68.8 and the IC50 stood at 6.8 nM.
For `Cc1cc(C(=O)Nc2cc(Cl)cc(NS(C)(=O)=O)c2)cn1-c1ncc(N2CC(F)(F)C2)cc1OC(C)C` [Example 672], the “DHX9 Biochemical Max Inhibition” value amounted to 65.1 and the IC50 turned out to be 97.8 nM.
Take `Cc1cc(C(=O)Nc2cc(Cl)cc(NS(C)(=O)=O)c2)cn1-c1ncc(N2CC(F)(F)C2)cc1OC1CCC1` [Example 673]: the “DHX9 Biochemical Max Inhibition” value is reported as 70.2 and the IC50 was found to be 104 nM.
For the compound `CS(=O)(=O)Nc1cc(Cl)cc(NC(=O)c2cnn(-c3ncccc3Oc3cccnc3)c2)c1` [Example 676], the “DHX9 Biochemical Max Inhibition” value is reported as 68.4 and the IC50 was determined as 70 nM.
For the compound `Cc1sc(C(=O)Nc2cc(Cl)cc(NS(C)(=O)=O)c2)cc1-c1ncc(OC(C)CO)cn1` (centres unmarked) [Example 677], the “DHX9 Biochemical Max Inhibition” value worked out at 75.1 and the IC50 worked out at 6.8 nM.
Regarding `Cc1sc(C(=O)Nc2cc(Cl)cc(NS(C)(=O)=O)c2)cc1-c1ncc(OC(C)(C)CO)cn1` [Example 678], the “DHX9 Biochemical Max Inhibition” value was determined as 71.3 and the IC50 came to 5.7 nM.
Taken in the same sequence, the figures for `CN1CC(Oc2cnc(-c3cc(C(=O)Nc4cc(Cl)cc(NS(C)(=O)=O)c4)cn3CC(F)F)nc2)C1` [Example 679] were 70.2 and 12.5 nM.
Taken in the same sequence, the figures for `Cc1sc(C(=O)Nc2cc(Cl)cc(NS(C)(=O)=O)c2)cc1-c1ncc(C2(F)COC2)cn1` [Example 680] were 95 and 3 nM.
As to `Cc1sc(C(=O)Nc2cc(Cl)cc(NS(C)(=O)=O)c2)cc1-c1ncc(C2(O)CN(C)C2)cc1F` [Example 681], the “DHX9 Biochemical Max Inhibition” value came to 77.5 and the IC50 is 2.4 nM.
As for `COCc1cc(C(=O)Nc2cc(Cl)cc(NS(C)(=O)=O)c2)cn1-c1ncccc1F` [Example 682], the “DHX9 Biochemical Max Inhibition” value turned out to be 85.4 and the IC50 was found to be 83.5 nM.
With `Cc1sc(C(=O)Nc2cc(Cl)cc(NS(C)(=O)=O)c2)c(F)c1-c1ncc(OC(C)C)cn1` [Example 683], the “DHX9 Biochemical Max Inhibition” value is listed as 62.5 and the IC50 amounted to 1710 nM.
`Cc1cccnc1-c1csc(C(=O)Nc2cc(Cl)cc(NS(C)(=O)=O)c2)c1C` [Example 684]: the “DHX9 Biochemical Max Inhibition” value is 50.6 and the IC50 worked out at 8310 nM.
With `Cc1sc(C(=O)Nc2cc(Cl)cc(NS(C)(=O)=O)c2)cc1N1C(=O)N(c2ccccn2)C(C)(C)C1=O` [Example 685], the “DHX9 Biochemical Max Inhibition” value stood at 64.3 and the IC50 amounted to 117 nM.
Taken in the same sequence, the figures for `CC(C)(C)Oc1cnc(-c2cc(C(=O)Nc3cc(Cl)cc(NS(C)(=O)=O)c3)sc2CO)nc1` [Example 686] were 66.6 and 18.2 nM.
The like results for `CS(=O)(=O)Nc1cc(Cl)cc(NC(=O)c2cc3c(s2)CCC3Oc2cccnc2)c1` (centres unmarked) [Example 687] were, in that order, 68.1 and 119 nM.
As for `Cn1cc(C(=O)Nc2cc(Cl)cc(NS(C)(=O)=O)c2)cc1-c1ccc(N2CC(C)(F)C2)cn1` [Example 688], the “DHX9 Biochemical Max Inhibition” value was 67.9 and the IC50 was found to be 16.1 nM.
As to `CS(=O)(=O)Nc1cc(Cl)cc(NC(=O)c2cc(-c3ccc(F)cn3)n(CCO)c2)c1` [Example 689], the “DHX9 Biochemical Max Inhibition” value stood at 85 and the IC50 stood at 3.6 nM.
Consider `COCc1cnc(-c2cc(C(=O)Nc3cc(Cl)cc(NS(C)(=O)=O)c3)cn2C)nc1` [Example 690], for which the “DHX9 Biochemical Max Inhibition” value stood at 75.8 and the IC50 worked out at 7.3 nM.
For the compound `CS(=O)(=O)Nc1cc(Cl)cc(NC(=O)c2cnn(-c3ncc(N4CC5(COC5)C4)cc3O)c2)c1` [Example 691], the “DHX9 Biochemical Max Inhibition” value stood at 68.5 and the IC50 was found to be 35.9 nM.
For `Cc1sc(C(=O)Nc2cc(Cl)cc(NS(C)(=O)=O)c2)cc1-c1cn(C2CCOCC2)nn1` [Example 692], the “DHX9 Biochemical Max Inhibition” value is given as 81.5 and the IC50 was 2.7 nM.
For `CCOc1cnc(-n2cc(C(=O)Nc3cc(Cl)cc(NS(C)(=O)=O)c3)cc2C(F)(F)F)nc1` [Example 693], the “DHX9 Biochemical Max Inhibition” value was 64.9 and the IC50 was determined as 408 nM.
As to `Cc1cc(C(=O)Nc2cc(Cl)cc(NS(C)(=O)=O)c2)cn1-c1ncc(N2CC(C(F)(F)F)C2)cn1` [Example 694], the “DHX9 Biochemical Max Inhibition” value amounted to 73 and the IC50 was 29.3 nM.
Taken in the same sequence, the figures for `Cn1cc(C(=O)Nc2cc(Cl)cc(NS(C)(=O)=O)c2)cc1-c1ccc(N2CC(CS(C)(=O)=O)C2)cn1` [Example 695] were 69.7 and 8.5 nM.
Taken in the same sequence, the figures for `Cc1sc(C(=O)Nc2cc(Cl)cc(NS(C)(=O)=O)c2)cc1-c1ncc(F)cc1C#CC(C)(C)O` [Example 696] were 75.4 and 11.5 nM.
As for `Cn1cc(C(=O)Nc2cc(Cl)cc(NS(C)(=O)=O)c2)cc1-c1ncc(OC2CN(C(=O)C3CC3)C2)cc1F` [Example 697], the “DHX9 Biochemical Max Inhibition” value is on record as 59.5 and the IC50 is 40.9 nM.
As for `Cc1sc(C(=O)Nc2cc(Cl)cc(NS(C)(=O)=O)c2)cc1-c1nccn1CCc1ccccc1` [Example 698], the “DHX9 Biochemical Max Inhibition” value is 75.4 and the IC50 is 1050 nM.
Taken in the same sequence, the figures for `CC(=O)N1CCC(c2cnc(-c3cc(C(=O)Nc4cc(Cl)cc(NS(C)(=O)=O)c4)sc3C)nc2)CC1` [Example 699] were 93.6 and 2.2 nM.
The like results for `CCS(=O)(=O)Nc1cc(Cl)cc(NC(=O)c2cc(-c3ncc(C(F)(F)F)cc3C)c(C)s2)c1` [Example 700] were, in that order, 85.6 and 153 nM.
Turning to `CS(=O)(=O)Nc1cc(Cl)cc(NC(=O)c2cc(-c3ccc(F)cn3)n(S(C)(=O)=O)c2)c1` [Example 701], the “DHX9 Biochemical Max Inhibition” value is 66.9 and the IC50 was determined as 115 nM.
In the case of `Cn1cc(C(=O)Nc2cc(Cl)cc(NS(C)(=O)=O)c2)cc1-c1ncc(N2CC3(C2)CC(F)(F)C3)cc1F` [Example 702], the “DHX9 Biochemical Max Inhibition” value amounted to 70.8 and the IC50 amounted to 95.5 nM.
As to `COc1ccc(F)c(-c2cc(C(=O)Nc3cc(Cl)cc(NS(C)(=O)=O)c3)cn2C)n1` [Example 703], the “DHX9 Biochemical Max Inhibition” value was 53.6 and the IC50 was determined as 44.4 nM.
As for `Cn1cc(C(=O)Nc2cc(Cl)cc(NS(C)(=O)=O)c2)cc1-c1ccc(C2CCOCC2)cn1` [Example 704], the “DHX9 Biochemical Max Inhibition” value stood at 78.1 and the IC50 came out at 12.5 nM.
As for `Cc1sc(C(=O)Nc2cc(Cl)cc(NS(C)(=O)=O)c2)cc1-c1ncc(F)cc1-c1cnco1` [Example 705], the “DHX9 Biochemical Max Inhibition” value is reported as 55.6 and the IC50 came out at 19.2 nM.
Take `Cc1sc(C(=O)Nc2cc(Cl)cc(NS(C)(=O)=O)c2)cc1-c1ncc(OCC(F)(F)F)cn1` [Example 706]: the “DHX9 Biochemical Max Inhibition” value was 96.1 and the IC50 was 19.6 nM.
For `Cc1sc(C(=O)Nc2cc(Cl)cc(NS(C)(=O)=O)c2)cc1-c1ncc(N2CC(F)(F)C2)cc1OCC(F)(F)F` [Example 707], the “DHX9 Biochemical Max Inhibition” value is 67.1 and the IC50 worked out at 28.3 nM.
Taken in the same sequence, the figures for `Cc1cc(C(=O)Nc2cc(Cl)cc(NS(C)(=O)=O)c2)cn1-c1ncc(N2CC(F)(F)C2)cc1OCC(F)(F)F` [Example 708] were 73 and 69.1 nM.
As for `CS(=O)(=O)Nc1cc(Cl)cc(NC(=O)c2cc(Cl)n(-c3ncc(F)cn3)c2)c1` [Example 709], the “DHX9 Biochemical Max Inhibition” value turned out to be 60.9 and the IC50 was determined as 100 nM.
Taken in the same sequence, the figures for `Cc1sc(C(=O)Nc2cc(Cl)cc(NS(C)(=O)=O)c2)cc1-c1ccc(C2CN(CC(F)(F)F)C2)cn1` [Example 710] were 69 and 14.5 nM.
